# Source: the supplement of paper PMC5579334
# Columns and labels:
# HS-PSS [1] = test: relative IC50 (inflection point of fitted dose-response curve, CellTox-Green cytotoxicity, 72 h; top asymptote may be below 50%); higher = less potent
# Summary of the method: (§1)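 For 72 h at 37 °C, MPNST cell lines and primary human Schwann cells were exposed in 384-well plates to five 10-fold compound dilutions. CellTox-Green, added before seeding at a final 1:1000 dilution, gave fluorescence from DNA released by disrupted cells. Signals were scaled to vehicle and positive-control wells, cultures failing plate quality control were left out, and four-parameter logistic fits were applied. Relative IC50 and drug sensitivity score were derived from the fits, with IC50 censored at the top concentration.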
# ST8814 [2] = test: as above
# Summary of the method: as §1
# STS26T [3] = test: as above
# Summary of the method: as §1
# HSC2 [4] = test: as above
# Summary of the method: as §1
# HSC1 [5] = test: as above
# Summary of the method: as §1
# S462 = test: relative IC50 (inflection point of fitted dose-response curve, CellTiter-Glo viability, 72 h; top asymptote may be below 50% inhibition); higher = less potent
# Summary of the method: (§2)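 After seeding 750–1000 cells per well of MPNST cell lines or primary human Schwann cells into 384-well plates preprinted with each compound at five concentrations in 10-fold steps, plates were kept 72 h at 37 °C, 5% CO2. Viability was read as CellTiter-Glo ATP luminescence relative to vehicle and positive-control wells, with duplicates averaged where present. The data were fitted with four-parameter logistic models. Drug sensitivity score and relative IC50, censored at the top concentration, derive from the fits, and percent inhibition refers to the top concentration.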
# HS-PSS [6] = test: as above
# Summary of the method: as §2
# ST8814 [7] = test: as above
# Summary of the method: as §2
# HS-Sch-2 = test: as above
# Summary of the method: as §2
# S1507-2 [8] = test: as above
# Summary of the method: as §2
# STS26T [9] = test: as above
# Summary of the method: as §2
# YST-1 = test: as above
# Summary of the method: as §2
# HSC2 [10] = test: as above
# Summary of the method: as §2
# HSC1 [11] = test: as above
# Summary of the method: as §2
# S1507-2 [12] = test: relative IC50 (inflection point of fitted dose-response curve, CellTox-Green cytotoxicity, 72 h; top asymptote may be below 50%); higher = less potent
# Summary of the method: as §1
SMILES,relative IC50 (HS-PSS [1]),relative IC50 (ST8814 [2]),relative IC50 (STS26T [3]),relative IC50 (HSC2 [4]),relative IC50 (HSC1 [5]),relative IC50 (S462),relative IC50 (HS-PSS [6]),relative IC50 (ST8814 [7]),relative IC50 (HS-Sch-2),relative IC50 (S1507-2 [8]),relative IC50 (STS26T [9]),relative IC50 (YST-1),relative IC50 (HSC2 [10]),relative IC50 (HSC1 [11]),relative IC50 (S1507-2 [12])
CS(=O)(=O)N1CCN(Cc2cc3nc(-c4cccc5[nH]ncc45)nc(N4CCOCC4)c3s2)CC1 [Pictilisib],> 10 µM,2280 nM,> 10000 nM,> 10000 nM,> 10000 nM,1150 nM,1110 nM,789 nM,1750 nM,128 nM,310 nM,445 nM,1550 nM,1210 nM,
CC(=O)c1c(C)c2cnc(Nc3ccc(N4CCNCC4)cn3)nc2n(C2CCCC2)c1=O [Palbociclib],> 10 µM,> 10000 nM,> 10000 nM,> 10000 nM,> 10000 nM,855 nM,1700 nM,1740 nM,1940 nM,987 nM,1340 nM,1350 nM,286 nM,268 nM,
CO[C@H]1C[C@@H]2CC[C@@H](C)[C@@](O)(O2)C(=O)C(=O)N2CCCC[C@H]2C(=O)O[C@H]([C@H](C)C[C@@H]2CC[C@@H](OC(=O)C(C)(CO)CO)[C@H](OC)C2)CC(=O)[C@H](C)/C=C(\C)[C@@H](O)[C@@H](OC)C(=O)[C@H](C)C[C@H](C)/C=C/C=C/C=C/1C [Temsirolimus],> 0.1 µM,> 100 nM,> 100 nM,> 100 nM,> 100 nM,1.34 nM,1.13 nM,0.561 nM,1.18 nM,0.775 nM,0.237 nM,1.38 nM,0.227 nM,0.103 nM,
COc1cc(Nc2ncc3c(n2)-c2ccc(Cl)cc2C(c2c(F)cccc2OC)=NC3)ccc1C(=O)O [Alisertib],> 10 µM,265 nM,40.4 nM,> 10000 nM,> 10000 nM,24.8 nM,1560 nM,288 nM,244 nM,124 nM,89.6 nM,31.1 nM,26.5 nM,53.4 nM,
O=C1c2c(O)ccc(O)c2C(=O)c2c(NCCNCCO)ccc(NCCNCCO)c21 [Mitoxantrone],> 1 µM,384 nM,380 nM,> 1000 nM,> 1000 nM,213 nM,194 nM,292 nM,87.4 nM,244 nM,366 nM,56.6 nM,89.1 nM,164 nM,
C[C@@H](C(=O)O)c1ccc(-c2ccccc2)c(F)c1 [Tarenflurbil],> 10 µM,> 10000 nM,> 10000 nM,> 10000 nM,> 10000 nM,> 10000 nM,> 10000 nM,> 10000 nM,> 10000 nM,> 10000 nM,> 10000 nM,> 10000 nM,> 10000 nM,> 10000 nM,
CC(C)c1c(C(=O)Nc2ccccc2)c(-c2ccccc2)c(-c2ccc(F)cc2)n1CC[C@@H](O)C[C@@H](O)CC(=O)O [Atorvastatin],> 10 µM,3270 nM,3510 nM,234 nM,368 nM,1280 nM,1680 nM,2450 nM,2210 nM,2500 nM,2090 nM,2320 nM,196 nM,319 nM,
COc1cccc2cc(-c3nc([C@H]4CC[C@H](C(=O)O)CC4)n4ncnc(N)c34)[nH]c12 [OSI-027],> 10 µM,> 10000 nM,> 10000 nM,> 10000 nM,> 10000 nM,608 nM,3800 nM,883 nM,3470 nM,631 nM,1810 nM,788 nM,1150 nM,712 nM,
C/C(=C\c1csc(C)n1)[C@@H]1C[C@@H]2O[C@]2(C)CCC[C@H](C)[C@H](O)[C@@H](C)C(=O)C(C)(C)[C@@H](O)CC(=O)O1 [Patupilone],> 1 µM,4.33 nM,1.03 nM,9.17 nM,12.1 nM,0.718 nM,0.89 nM,2.25 nM,1.37 nM,3.52 nM,1.03 nM,0.72 nM,2.45 nM,0.929 nM,
COc1cc2ncnc(Nc3ccc(F)c(Cl)c3)c2cc1OCCCN1CCOCC1 [Gefitinib],> 10 µM,2950 nM,3930 nM,> 10000 nM,> 10000 nM,4160 nM,1780 nM,3560 nM,1900 nM,3600 nM,3770 nM,987 nM,2690 nM,2940 nM,
CCc1cnn2c(NCc3ccc[n+]([O-])c3)cc(N3CCCC[C@H]3CCO)nc12 [Dinaciclib],0.00772 µM,36.4 nM,8.71 nM,43.9 nM,84.2 nM,6.5 nM,10.1 nM,29.5 nM,8.55 nM,25.9 nM,12.7 nM,7.48 nM,13.6 nM,21.6 nM,
CN1CC[C@H](c2c(O)cc(O)c3c(=O)cc(-c4ccccc4Cl)oc23)[C@H](O)C1 [Alvocidib],0.194 µM,931 nM,614 nM,304 nM,484 nM,170 nM,120 nM,173 nM,195 nM,299 nM,185 nM,185 nM,243 nM,219 nM,
COC1=CC(c2cc3ccccc3[nH]2)=N/C1=C\c1[nH]c(C)cc1C [Obatoclax],> 10 µM,2870 nM,2960 nM,2100 nM,2220 nM,1960 nM,1990 nM,2880 nM,1590 nM,1900 nM,2330 nM,1230 nM,1360 nM,1370 nM,
CN(C)c1nc(N(C)C)nc(N(C)C)n1 [Altretamine],> 10 µM,> 10000 nM,> 10000 nM,> 10000 nM,> 10000 nM,> 10000 nM,> 10000 nM,> 10000 nM,> 10000 nM,> 10000 nM,> 10000 nM,> 10000 nM,> 10000 nM,> 10000 nM,
CC/C(=C(\c1ccc(O)cc1)c1ccc(OCCN(C)C)cc1)c1ccccc1 [4-hydroxytamoxifen],3.41 µM,3310 nM,3560 nM,2180 nM,3000 nM,1810 nM,2320 nM,2390 nM,2060 nM,1470 nM,2540 nM,1390 nM,2490 nM,2010 nM,
Cc1c2oc3c(C)ccc(C(=O)N[C@@H]4C(=O)N[C@H](C(C)C)C(=O)N5CCC[C@H]5C(=O)N(C)CC(=O)N(C)[C@@H](C(C)C)C(=O)O[C@@H]4C)c3nc-2c(C(=O)N[C@@H]2C(=O)N[C@H](C(C)C)C(=O)N3CCC[C@H]3C(=O)N(C)CC(=O)N(C)[C@@H](C(C)C)C(=O)O[C@@H]2C)c(N)c1=O [Dactinomycin],0.012 µM,49.1 nM,3.07 nM,8.46 nM,12.4 nM,1.86 nM,5.05 nM,3.46 nM,1.95 nM,5.95 nM,2.08 nM,0.88 nM,0.779 nM,0.906 nM,
Cc1cc(C(C)Nc2ccccc2)c2nc(N3CCOCC3)cc(=O)n2c1 (centres undefined) [TGX-221],> 10 µM,> 10000 nM,,> 10000 nM,> 10000 nM,,> 10000 nM,,,,875 nM,3370 nM,> 10000 nM,,> 10 µM
Cn1cc(C2=C(c3cn(C4CCN(Cc5ccccn5)CC4)c4ccccc34)C(=O)NC2=O)c2ccccc21 [Enzastaurin],> 10 µM,> 10000 nM,,> 10000 nM,> 10000 nM,,,,,,,> 10000 nM,2910 nM,,> 10 µM
CN(C)CCOc1ccc(/C(=C(/CCCl)c2ccccc2)c2ccccc2)cc1 [Toremifene],> 10 µM,2820 nM,,> 10000 nM,> 10000 nM,,3430 nM,4060 nM,3460 nM,,3440 nM,3740 nM,2870 nM,,3.22 µM
O=C(CCCCCCC(=O)Nc1ccc([C@H]2O[C@@H](CSc3nc(-c4ccccc4)c(-c4ccccc4)o3)C[C@@H](c3ccc(CO)cc3)O2)cc1)NO [Tubacin],,3070 nM,3190 nM,> 10000 nM,> 10000 nM,3160 nM,1470 nM,2970 nM,2800 nM,3190 nM,3310 nM,2010 nM,2970 nM,3280 nM,
CO[C@@H](C(=O)N1Cc2[nH]nc(NC(=O)c3ccc(N4CCN(C)CC4)cc3)c2C1)c1ccccc1 [Danusertib],2.63 µM,1170 nM,744 nM,2390 nM,2690 nM,389 nM,1270 nM,1200 nM,529 nM,641 nM,1230 nM,57.8 nM,968 nM,759 nM,
CNNCc1ccc(C(=O)NC(C)C)cc1 [Procarbazine],> 10 µM,> 10000 nM,> 10000 nM,> 10000 nM,> 10000 nM,> 10000 nM,> 10000 nM,> 10000 nM,> 10000 nM,> 10000 nM,> 10000 nM,> 10000 nM,> 10000 nM,> 10000 nM,
O=P1(N(CCCl)CCCl)NCCCO1 (centres undefined) [Cyclophosphamide],> 40 µM,> 40000 nM,> 40000 nM,> 40000 nM,> 40000 nM,> 40000 nM,> 40000 nM,> 40000 nM,> 40000 nM,> 40000 nM,> 40000 nM,> 40000 nM,> 40000 nM,> 40000 nM,
CO[C@H](C(=O)[C@@H](O)[C@@H](C)O)[C@@H]1Cc2cc3cc(O[C@H]4C[C@@H](O[C@H]5C[C@@H](O)[C@H](O)[C@@H](C)O5)[C@@H](O)[C@@H](C)O4)c(C)c(O)c3c(O)c2C(=O)[C@H]1O[C@H]1C[C@@H](O[C@H]2C[C@@H](O[C@H]3C[C@](C)(O)[C@H](O)[C@@H](C)O3)[C@H](O)[C@@H](C)O2)[C@H](O)[C@@H](C)O1 [Plicamycin],2.41 µM,> 10000 nM,33.3 nM,247 nM,255 nM,85.2 nM,1380 nM,51.4 nM,865 nM,102 nM,47.5 nM,564 nM,52 nM,45.6 nM,
CCOC(=O)CCNc1cc(N2CCc3ccccc3CC2)nc(-c2ccccn2)n1 [GSK-J4],27.2 µM,15500 nM,14800 nM,23700 nM,23700 nM,3740 nM,6010 nM,5900 nM,4520 nM,6510 nM,5270 nM,4300 nM,4570 nM,4680 nM,
